Data set [1] deals with HBV. As to the kind of experiment: anti-HBV activity, HepG2.2.15 stable transfected cell line, HBV DNA from secreted virions by realtime PCR. It counts as cell-based. Conditions: Hepatitis B virus, 144 h, HepG2.2.15 cells, 6 days of treatment.
The test system of data set [2] is HBV. As to the kind of experiment: anti HBV activity, HepG2.117 inducibly HBV producing cell line (Tet-off), intracellular HBV DNA by realtime PCR. The class given is cell-based. The settings on record: Hepatitis B virus, 72 h, HepG2.117 cells, 3 days of treatment.
Data set [3] is described as follows: Cytotoxicity, HepG2 cells, Resazurin assay. It counts as cell-based. Conditions: human.
Data set [4] is described as follows: ATP based toxicity assay (ATPlite), HepG2 cell line. The settings on record: human, HepG2 cells, ATPlite (ATP levels). The essentials:
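HepG2 cells exposed to compound, then ATPlite reagent added at 1 volume. Cellular ATP read by luminescence as a viability measure.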

Where only a bound is given, the exact number is not on record here.

In turn, `C[C@@H](NS(=O)(=O)c1cn(C)c(C(=O)Nc2ccnc(C#N)c2)c1Cl)C(F)(F)F` [Compound 9, 3-Chloro-N-(2-cyanopyridin-4-yl)-1-methyl-4-{[(1R)-2,2,2-trifluoro-1-methylethyl]sulfamoyl}-1H-pyrrole-2-carboxamide] had a melting point of 190.8 °C. In data set [1], this molecule displayed an EC50 of 0.02 µM. The molecule further registered an EC50 in data set [2] of 0.04 µM. This molecule also showed a CC50 at 4 days in data set [3] greater than 25 µM. Further, the CC50 at 4 days in data set [4] was greater than 25 µM.
The molecule `C[C@@H](NS(=O)(=O)c1cn(C)c(C(=O)Nc2cccnc2)c1Cl)C(F)(F)F` [Compound 17, 3-chloro-1-methyl-N-(3-pyridyl)-4-[[(1R)-2,2,2-trifluoro-1-methyl-ethyl]sulfamoyl]pyrrole-2-carboxamide] showed a melting point of 196.6 °C. Further, in data set [1], the EC50 is 0.75 µM. The same molecule yielded an EC50 in data set [2] of 0.53 µM. This molecule returned a CC50 at 4 days in data set [3] greater than 25 µM.
Molecule `C[C@@H](NS(=O)(=O)c1cn(C)c(C(=O)Nc2ccccn2)c1Cl)C(F)(F)F` [Compound 15, 3-chloro-1-methyl-N-(2-pyridyl)-4-[[(1R)-2,2,2-trifluoro-1-methyl-ethyl]sulfamoyl]pyrrole-2-carboxamide] had a melting point of 195.2 °C. The same molecule returned an EC50 in data set [1] greater than 1 µM. Moreover, the EC50 in data set [2] was greater than 1 µM. For the same molecule, the CC50 at 4 days in data set [3] is greater than 25 µM.
`C[C@@H](NS(=O)(=O)c1cn(C)c(C(=O)Nc2ccnc(Cl)c2)c1Cl)C(F)(F)F` [Compound 12, 3-Chloro-N-(2-chloropyridin-4-yl)-1-methyl-4-{[(1R)-2,2,2-trifluoro-1-methylethyl]sulfamoyl}-1H-pyrrole-2-carboxamide] displayed a melting point of 214.8 °C. In data set [1], this molecule had an EC50 of 0.01 µM. For the same molecule, the midpoint of the response in data set [2], the EC50, lay at 0.02 µM. The molecule also registered a CC50 at 4 days in data set [3] greater than 25 µM. This molecule returned a CC50 at 4 days in data set [4] greater than 25 µM.
The molecule `Cc1nccc(NC(=O)c2c(Cl)c(S(=O)(=O)N[C@H](C)C(F)(F)F)cn2C)c1F` [Compound 14, 3-chloro-N-(3-fluoro-2-methyl-4-pyridyl)-1-methyl-4-[[(1R)-2,2,2-trifluoro-1-methyl-ethyl]sulfamoyl]pyrrole-2-carboxamide] yielded a melting point of 197.8 °C. The same molecule came in with an EC50 in data set [1] of 0.06 µM. In data set [2], a half-maximal effect (EC50) was put at 0.12 µM. The molecule further came in with a CC50 at 4 days in data set [3] greater than 25 µM.
On to `Cc1nc(NC(=O)c2c(Cl)c(S(=O)(=O)N[C@H](C)C(F)(F)F)cn2C)ccc1F` [Compound 7, 3-Chloro-N-(5-fluoro-6-methylpyridin-2-yl)-1-methyl-4-{[(1R)-2,2,2-trifluoro-1-methylethyl]sulfamoyl}-1H-pyrrole-2-carboxamide], for which the melting point was determined as 173.1 °C. In data set [1], this molecule displayed an EC50 of 0.09 µM. In addition, in data set [2], a half-maximal response (EC50) required 0.25 µM. Besides, the CC50 at 4 days in data set [3] is greater than 25 µM. The CC50 at 4 days in data set [4] is greater than 25 µM.

Values taken from patent US11078193B2 (priority 2014, dated 2021).
